Assay results reported in patent US11780851B2, “LRRK2 inhibitors” (H. Lundbeck A/S, priority 2021, dated 2023).
Entries after “also recorded” stand apart in the source; their conditions may differ. Read-outs that look alike come from different tables or passages of the source.

Experiments:
[1] = Free fraction in plasma (equilibrium dialysis); format: in vitro ADME, male Sprague-Dawley rat; conditions: rat plasma, 1 μM, 5 h at 37° C.
Outline: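 Equilibrium dialysis (12-14 kDa membrane) of male Sprague-Dawley rat or female Gottingen minipig plasma, or rat brain homogenate diluted 1:4, against 100 mM sodium phosphate pH 7.4, compound at 1 μM nominal (≤0.5% DMSO), 5 h at 37 °C. LC/MS-MS quantification; percent free calculated, with dilution factor 4 for brain.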

[2] = test system: pooled donor, cryopreserved hepatocytes; experiment: Hepatocyte intrinsic clearance assay; format: in vitro ADME, human; conditions: 0.1 μM, 2 h at 37° C., 1×10^6 hepatocytes/mL; * measured on 3 separate occasions, ** on a single occasion
Description: (§1) Test compounds (final concentration 0.1 μM, 0.05% organic) were incubated for 2 h at 37° C., with shaking, in supplemented Leibovitz L-15 media (pH7.4) containing commercially sourced, pooled donor, cryopreserved hepatocytes (final concentration 1×10^6 hepatocytes/m L). The CLint reactions (350 μL) were initiated by addition of test compound. Aliquots (25 μL) were taken at 1, 5, 10, 15, 30, 60, 90 and 120 minutes and then protein crashed with ice-cold acetonitrile containing internal standard (150 μL) then centrifuged (1960 g for 20 minutes at 4° C.). Supernatant was diluted (1:4) with deionized water then analyzed by liquid chromatography (LC)-tandem mass spectrometry (MS/MS). The intrinsic clearances (CLint) were calculated from the slope (k) of the linear regressions of percentages of compound remaining in incubation against incubation time, according to equations 2 and 3.

LRRK2 WT = target: T1, LRRK2 WT (Homo sapiens, UniProt Q5S007); experiment: LRRK2 wild-type kinase activity assay (LanthaScreen TR-FRET); format: biochemical; conditions: 1 nM LRRK2 WT, 1.3 mM ATP, 3.5 h at 30° C.; n≥2 tests
T1 construct: comprises residue 970 to 2527 of the full length human wild-type LRRK2 kinase; purchased Invitrogen (Life Technologies Corporation)
T1 sequence (Q5S007 970-2527): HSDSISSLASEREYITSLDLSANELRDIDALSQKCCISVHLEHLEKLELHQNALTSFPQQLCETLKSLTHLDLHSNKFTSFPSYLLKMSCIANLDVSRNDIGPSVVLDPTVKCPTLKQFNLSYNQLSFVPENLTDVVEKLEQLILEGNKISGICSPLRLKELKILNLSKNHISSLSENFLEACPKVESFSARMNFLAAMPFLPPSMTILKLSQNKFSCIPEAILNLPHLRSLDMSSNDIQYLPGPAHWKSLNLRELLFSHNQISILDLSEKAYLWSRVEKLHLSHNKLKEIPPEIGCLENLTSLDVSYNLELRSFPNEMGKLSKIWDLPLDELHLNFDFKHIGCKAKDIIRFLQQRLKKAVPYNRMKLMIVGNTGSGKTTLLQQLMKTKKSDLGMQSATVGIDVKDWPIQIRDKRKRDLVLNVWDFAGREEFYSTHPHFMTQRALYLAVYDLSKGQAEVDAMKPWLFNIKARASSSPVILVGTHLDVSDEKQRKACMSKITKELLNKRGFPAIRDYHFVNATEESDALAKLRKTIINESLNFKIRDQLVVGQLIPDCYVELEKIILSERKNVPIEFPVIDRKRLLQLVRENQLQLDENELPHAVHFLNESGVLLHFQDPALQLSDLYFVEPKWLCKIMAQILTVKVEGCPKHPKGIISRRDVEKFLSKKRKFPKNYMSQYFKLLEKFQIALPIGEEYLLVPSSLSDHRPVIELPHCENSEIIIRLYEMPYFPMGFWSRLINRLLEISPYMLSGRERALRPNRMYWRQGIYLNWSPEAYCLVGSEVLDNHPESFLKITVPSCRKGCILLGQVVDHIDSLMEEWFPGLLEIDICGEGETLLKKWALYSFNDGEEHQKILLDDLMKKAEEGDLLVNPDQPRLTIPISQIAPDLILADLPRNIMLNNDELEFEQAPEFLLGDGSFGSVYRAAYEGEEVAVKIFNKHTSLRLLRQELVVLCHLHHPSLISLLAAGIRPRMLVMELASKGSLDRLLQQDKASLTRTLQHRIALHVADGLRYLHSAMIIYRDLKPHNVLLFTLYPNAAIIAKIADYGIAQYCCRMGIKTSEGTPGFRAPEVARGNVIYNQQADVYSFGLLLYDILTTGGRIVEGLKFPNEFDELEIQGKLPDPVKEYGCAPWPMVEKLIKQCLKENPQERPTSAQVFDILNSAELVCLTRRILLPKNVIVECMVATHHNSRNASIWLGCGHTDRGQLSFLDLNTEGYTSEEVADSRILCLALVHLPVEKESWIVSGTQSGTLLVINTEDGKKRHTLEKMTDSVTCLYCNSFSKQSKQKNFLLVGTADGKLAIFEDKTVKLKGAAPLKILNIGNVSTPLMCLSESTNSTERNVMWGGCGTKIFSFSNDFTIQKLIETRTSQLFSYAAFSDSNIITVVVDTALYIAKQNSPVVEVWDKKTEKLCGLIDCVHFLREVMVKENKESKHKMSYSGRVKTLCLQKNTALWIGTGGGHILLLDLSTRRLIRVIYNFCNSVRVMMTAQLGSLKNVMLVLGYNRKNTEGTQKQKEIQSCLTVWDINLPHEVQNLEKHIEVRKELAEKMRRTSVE
Outline: (§2)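 TR-FRET measured phosphorylation of fluorescein-ERM LRRKtide by human LRRK2 residues 970–2527, wild-type or G2019S, detected with a terbium anti-phospho-LRRKtide antibody. The 520/495 nm ratio was normalized to uninhibited and inhibitor controls. IC50 came from a Hill fit, log-averaged over independent experiments.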

[3] = Rat B/P (brain disposition); format: in vivo, male Sprague-Dawley rats; conditions: male, Sprague-Dawley; for concentration at 1 h / Kp uu at 1 h / Kp at 1 h: time point 1.0 h
Outline: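 Male Sprague-Dawley rats (n=3, standard body weight) were used to assess brain disposition. Plasma and brain homogenates underwent protein precipitation with acetonitrile containing internal standard, then LC-MS/MS measurement using an optimized method. Compound levels were quantified against matrix-matched calibration standards, and brain Kp was calculated as total brain concentration divided by total plasma concentration.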

LRRK2 G2019S = target: T2, LRRK2 G2019S (Homo sapiens, UniProt Q5S007, G2019S); experiment: LRRK2 G2019S kinase activity assay (LanthaScreen TR-FRET); format: biochemical; conditions: 250 pM LRRK2 G2019S, 1.3 mM ATP, 3 h at 30° C.; n≥2 tests
T2 construct: purchased Invitrogen (Life Technologies Corporation)
T2 sequence (Q5S007 970-2527 G2019S): as the sequence (Q5S007 970-2527) above, with G1050S counted along it
Outline: as §2

GSH adduct screening = format: in vitro ADME, human; conditions: 1 μM, 3 h at 37° C., HLM 0.5 mg/mL, NADPH, with and without GSH
Description: Test compounds (final concentration 1 μM, 0.25% organic) were incubated for 3 h at 37° C. in commercially sourced, pooled donor, human liver microsomes (HLM, final concentration 0.5 mg/mL) with and without addition of glutathione (GSH; final concentration […]). The metabolic reaction was initiated by addition of microsomal solution to the mixture of cofactor NADPH (final concentration 1 mM), test compound and GSH. After 3 h of incubation in a water bath at 37° C., the reaction was stopped by addition of 0.2% formic acid in acetonitrile, followed by mixing and centrifugation (16000 g for 5 minutes). Supernatant was diluted (1:1) with HPLC water then analyzed by liquid chromatography (LC)-quadrupole time-of-flight mass spectrometry (QTOF-MS). Accurate mass MS and MS/MS spectra from samples with GSH and without GSH, respectively, were compared to identify detectable GSH and/or cysteine related adducts.

[4] = Hepatocyte intrinsic clearance assay; format: in vitro ADME, human; conditions: human, pooled donor, cryopreserved hepatocytes, pH 7.4, 0.1 μM, 2 h at 37° C., 1×10^6 hepatocytes/mL; * measured on 3 separate occasions, ** on a single occasion
Description: as §1

[5] = brain, oral gavage 10 mg/kg, mean ± stdev, n = 3, read-out: Total brain concentration
[6] = brain/plasma, oral gavage 10 mg/kg, mean ± stdev, n = 3
[7] = plasma, oral gavage 10 mg/kg, mean ± stdev, n = 3, read-out: Total plasma concentration

## Cc1c2c(nn1[C@H]1CCCOCC1)OCCCn1nc(Cl)c3cnc(nc31)N2 (single isomer, unassigned) [Example 30, (+)-(R) or (S)-8-Chloro-3-methyl-2-(oxepan-4-yl)-2,4,12,13-tetrahydro-11H-5,7-(azenometheno)dipyrazolo[3,4-b:5′,1′-g][1]oxa[4,6,8]triazacycloundecine]
[1]
  fuplasma (% free): 26.5 % free
[2]
  CLint: 10.5 mL/min/kg
LRRK2 WT
  IC50: 12 nM
[3]; brain, oral gavage 5 mg/kg, mean ± stdev, n = 3, read-out: Total brain concentration
  concentration at 1 h: 427 ± 96 ng/g
[3]; brain/plasma, oral gavage 5 mg/kg, fubrain from brain homogenate
  Kp uu at 1 h: 0.73 ± 0.06
[3]; brain/plasma, oral gavage 5 mg/kg, mean ± stdev, n = 3
  Kp at 1 h: 2.05 ± 0.18
[3]; plasma, oral gavage 5 mg/kg, mean ± stdev, n = 3, read-out: Total plasma concentration
  concentration at 1 h: 210 ± 50 ng/mL
LRRK2 G2019S
  IC50: 4 nM

## Cc1c2c(nn1[C@H]1CCCOC1)OCCCn1nc(Cl)c3cnc(nc31)N2 (single isomer, unassigned) [Example 4, (R) or (S)-8-Chloro-3-methyl-2-(tetrahydro-2H-pyran-3-yl)-2,4,12,13-tetrahydro-11H-5,7-(azenometheno)dipyrazolo[3,4-b:5′,1′-g][1]oxa[4,6,8]triazacycloundecine]
[1]
  fuplasma (% free): 25.3 % free
[2]
  CLint: 14.5 mL/min/kg
LRRK2 WT
  IC50: 12 nM
[3]; [5]
  concentration at 1 h: 1360 ± 186 ng/g
[3]; brain/plasma, oral gavage 10 mg/kg, fubrain from brain homogenate
  Kp uu at 1 h: 0.42 ± 0.07
[3]; [6]
  Kp at 1 h: 1.82 ± 0.33
[3]; [7]
  concentration at 1 h: 758 ± 145 ng/mL
LRRK2 G2019S
  IC50: 2.8 nM

## [2H]C([2H])([2H])c1c2c(nn1[C@H]1CCO[C@@H](C)C1)OCCCn1nc(Cl)c3cnc(nc31)N2 (single isomer, unassigned) [Example 52, (−)-8-Chloro-3-(methyl-d3)-2-((2R,4R) or (2S,4S)-2-methyltetrahydro-2H-pyranyl)-2,4,12,13-tetrahydro-11H-5,7-(azenometheno)dipyrazolo[3,4-b:5′,1′-g][1]oxa[4,6,8]triazacycloundecine]
[2]
  CLint: <4 mL/min/kg
GSH adduct screening
  Adduct detected in GSH supplemented HLMs: +GSH
LRRK2 WT
  IC50: 19 nM
LRRK2 G2019S
  IC50: 10 nM

## [2H]C([2H])([2H])c1c2c(nn1[C@H]1CCCOCC1)OCCCn1nc(Cl)c3cnc(nc31)N2 (single isomer, unassigned) [Example 59, (−)-(R) or (S)-8-Chloro-3-(methyl-d3)-2-(oxepan-4-yl)-2,4,12,13-tetrahydro-11H-5,7-(azenometheno)dipyrazolo[3,4-b:5′,1′-g][1]oxa[4,6,8]triazacycloundecine]
[2]
  CLint: 6.67 mL/min/kg
LRRK2 WT
  IC50: 17 nM
LRRK2 G2019S
  IC50: 6.2 nM

## Cc1c2c(nn1[C@@H]1CCO[C@H](C)C1)OCCCn1nc(Cl)c3cnc(nc31)N2 (single isomer, unassigned) [Example 19]
[1]
  fuplasma (% free): 24.0 % free
[2]
  CLint: <4 mL/min/kg
GSH adduct screening
  Adduct detected in GSH supplemented HLMs: +GSH
LRRK2 WT
  IC50: 13 nM
[3]; brain, oral gavage 10 mg/kg, time point 0.5 h, mean ± stdev, n = 3, read-out: Total brain concentration
  concentration at 0.5 h: 1430 ± 134 ng/g
[3]; brain/plasma, oral gavage 10 mg/kg, time point 0.5 h, fubrain from brain homogenate
  Kp uu at 0.5 h: 0.4 ± 0.04
[3]; brain/plasma, oral gavage 10 mg/kg, time point 0.5 h, mean ± stdev, n = 3
  Kp at 0.5 h: 1.28 ± 0.13
[3]; plasma, oral gavage 10 mg/kg, time point 0.5 h, mean ± stdev, n = 3, read-out: Total plasma concentration
  concentration at 0.5 h: 1140 ± 229 ng/mL
LRRK2 G2019S
  IC50: 3.9 nM

## Cc1c2c(nn1[C@@H]1CCOC[C@H]1F)OCCCn1nc(Cl)c3cnc(nc31)N2 (single isomer, unassigned) [Example 32, (+)-8-Chloro-2-((3S,4R) or (3R,4S)-3-fluorotetrahydro-2H-pyran-4-yl)-3-methyl-2,4,12,13-tetrahydro-11H-5,7-(azenometheno)dipyrazolo[3,4-b:5′,1′-g][1]oxa[4,6,8]triazacycloundecine]
[2]
  CLint: <4 mL/min/kg
LRRK2 WT
  IC50: 15 nM
LRRK2 G2019S
  IC50: 6.1 nM

## [2H]C([2H])([2H])c1c2c(nn1[C@@H]1CCCOC1)OCCCn1nc(Cl)c3cnc(nc31)N2 (single isomer, unassigned) [Example 61, (R) or (S)-8-Chloro-3-(methyl-d3)-2-(tetrahydro-2H-pyran-3-yl)-2,4,12,13-tetrahydro-11H-5,7-(azenometheno)dipyrazolo[3,4-b:5′,1′-g][1]oxa[4,6,8]triazacycloundecine]
[2]
  CLint: <4 mL/min/kg
LRRK2 WT
  IC50: 34 nM
LRRK2 G2019S
  IC50: 10 nM

## [2H]C([2H])([2H])c1c2c(nn1[C@@H]1CCCOC1)OCCCn1nc(Cl)c3cnc(nc31)N2 (single isomer, unassigned) [Example 60, (R) or (S)-8-Chloro-3-(methyl-d3)-2-(tetrahydro-2H-pyran-3-yl)-2,4,12,13-tetrahydro-11H-5,7-(azenometheno)dipyrazolo[3,4-b:5′,1′-g][1]oxa[4,6,8]triazacycloundecine]
[2]
  CLint: 8.5 mL/min/kg
LRRK2 WT
  IC50: 25 nM
LRRK2 G2019S
  IC50: 9 nM

## CCc1c2c(nn1C1CCOCC1)OCCCn1nc(Cl)c3cnc(nc31)N2 [Example 17, 8-Chloro-3-ethyl-2-(tetrahydro-2H-pyran-4-yl)-2,4,12,13-tetrahydro-11H-5,7-(azenometheno)dipyrazolo[3,4-b:5′,1′-g][1]oxa[4,6,8]triazacycloundecine]
[1]
  fuplasma (% free): 27.5 % free
[4]
  CLint scaled at 0.1 μM: 5.67 mL/min/kg
GSH adduct screening
  Adduct detected in GSH supplemented HLMs: did not form GSH adduct; also recorded: None detected
LRRK2 WT
  IC50: 15 nM
[3]; [5]
  concentration at 1 h: 1150 ± 59 ng/g
[3]; [6]
  Kp at 1 h: 1.76 ± 0.08
[3]; brain/plasma, po, 10 mg/kg, oral gavage 10 mg/kg, fubrain from brain homogenate
  Kp uu at 1 h: 0.59 ± 0.03
[3]; [7]
  concentration at 1 h: 653 ± 52 ng/mL
LRRK2 G2019S
  IC50: 5.8 nM

## Cc1c2c(nn1[C@H]1CCCOC1)OCCCn1nc(Cl)c3cnc(nc31)N2 (single isomer, unassigned) [Example 3, (R) or (S)-8-Chloro-3-methyl-2-(tetrahydro-2H-pyran-3-yl)-2,4,12,13-tetrahydro-11H-5,7-(azenometheno)dipyrazolo[3,4-b:5′,1′-g][1]oxa[4,6,8]triazacycloundecine]
[2]
  CLint: 5.5 mL/min/kg
LRRK2 WT
  IC50: 9.2 nM
LRRK2 G2019S
  IC50: 2.2 nM
